The structures appear in SMILES notation. Square brackets hold non-standard residues; d marks the D form. Peptide text beside a SMILES is read from it. Nspe = C[C@H](NCC(=O)O)c1ccccc1; Nlys = NCCCCNCC(=O)O Where only a bound is given, the exact number is not on record here.

For series [1], the system named is NIH 3T3 mouse fibroblast cells. As to the kind of experiment: MTS assay, metabolic inhibition. It is filed as cell-based. The settings on record: Table 3; NIH 3T3 cells. Put shortly:
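NIH/3T3 cells seeded at 5,000 per well, grown a day, then exposed to serially diluted peptoids in HBSS together with MTS reagent. Absorbance at 490 nm read after 3 hours at 37° C.; mean of six replicates.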

A further series deals with B. subtilis BR151. It is filed as cell-based. The settings on record: Table 1. An excerpt:
(§1) An initial set of 15 ampetoid analogs was synthesized to determine whether peptoids are affected by structural and sequence modifications in a manner consistent with AMP activities. The designs for ampetoids in this library were derived from two antibacterial and selective amphipathic dodecamers, 1 and 2. Peptoid 1 [H-(Nlys-Nspe-Nspe)4—NH2] is composed of 2/3 Nspe, the peptoid analog of phenylalanine, and 1/3 Nlys, the peptoid analog of lysine (see FIG. 1 for the structures of representative peptoid monomers and corresponding N-substituents). Peptoid 2 [H-(Nlys-Nssb-Nspe)4—NH2] contains 1/3 isoleucine-like Nssb monomers in place of Nspe. The variant sequences were designed to effect changes in chirality, length, hydrophobicity, charge, and amphipathicity. All of these compounds were tested for antibacterial activity against representative BSL1 Gram-negative (E. coli JM109) and Gram-positive (B. subtilis BR151) bacterial strains. As an initial measure of selectivity, the lytic activity of the peptoids was determined against human erythrocytes. Table 1 summarizes the sequences synthesized, the solvent composition at RP-HPLC elution as a relative measure of molecular hydrophobicity, and antibacterial and hemolytic activities.
(§2) Antibacterial assays. MICs were determined according to CLSI M7-A6 protocols in a 96-well microtiter plate. In test wells, 50 μL bacterial inoculum (5×10^5 CFU/ml) in Mueller-Hinton broth (MHB) was added to 50 μL peptoid solution in MHB (prepared by 1:2 serial dilutions). Positive controls contained 50 μL inoculum and 50 μL MHB without peptoid. […] MIC values reported were reproducible between three independent experimental replicates, each consisting of two parallel trials. Broad-spectrum antimicrobial susceptibility testing was performed against BSL2 pathogens by Nova Biologicals, Inc. (Conroe, Tex.).

A further series deals with E. coli JM109. It is filed as cell-based.
Text: as §1, §2

In another series the test system is E. coli. The series is classed as cell-based. The settings on record: Table 2; cation-adjusted broth. On the procedure: as §2
(§3) Screening antibacterial assays. MICs were determined in 96-well microtiter plates in accordance with CLSI M7-A6 protocols. Peptoid solutions with 50 μL total volume were prepared using 2:1 serial dilutions. 50 μL of bacteria inoculum (1×10^6 CFU/mL) prepared in cation-adjusted Mueller-Hinton broth (CAMHB) was added to test wells. Control wells contained 100 μL MHB (no growth) or 50 μL inoculums with 50 μL MHB with no peptoid. […] Reported values were reproducible over three experiments, each containing two parallel trials.

A further series relates to B. subtilis. It is filed as cell-based. The settings on record: Table 2; cation-adjusted broth. As to the method:
as §2, §3

Series [2] deals with Candida albicans (SC5314). It is filed as cell-based, C. albicans. The settings on record: Table 2. On the procedure:
Additionally, in order to characterize possible antifungal activity, a library of alkylated compounds was tested against C. albicans, a representative fungal strain.
Antifungal Assays. MICs were determined using the broth microdilution assay given by CLSI M27-A2 protocols. Candida albicans (SC5314) was grown on Sabouraud dextrose agar for 24 hours at 30° C. Cells were suspended in 0.145 M saline, and the cell concentration was adjusted to 3×10^6 cells/mL. After adjusting the cell concentration, the suspension was diluted 1:1000 with RPMI 1640 (with L-glutamine and without sodium bicarbonate, Invitrogen) buffered with 0.145 M 3-(N-morpholino) propanesulfonic acid (MOPS). Two-fold serial dilutions of peptoids, peptides, and amphotericin B (Calbiochem) were prepared in RPMI 1640 and mixed with an equal volume of the cell suspension in 96-well plates. The final testing concentrations for the peptoids and peptides were 0.20 to 100 μM, and concentrations for amphotericin B were 0.031 to 16 μM. Growth controls and sterility controls were also included. Plates were incubated for 48 hours at 35° C., and growth of C. albicans was inspected visually to determine the MICs. The MIC for each compound was defined as the lowest concentration with no visible fungal growth. Experiments were performed in duplicate on two separate days.

Series [3] deals with both strains of E. faecalis. The series is classed as cell-based. The settings on record: range over strains. As to the method:
The activities of ampetoids tested against BSL2 Gram-positive strains, however, compared very favorably to those of pexiganan.
Broad-spectrum antibacterial assays. MICs of compounds were determined by microdilution procedure in Mueller-Hinton broth (MHB) in accordance with CLSI M7-A6 protocols in a manner similar to that described for the screen antibacterial assays. Inoculated microtiter plates were incubated at 35° C. for 24 hours prior to the result being recorded. Four ATCC strains that were used as standards are recommended by CLSI: Pseudomonas aeruginosa ATCC 27853, Escherichia coli ATCC 25922, Staphylococcus aureus ATCC 29213 and Enterococcus faecalis ATCC 29212. Other strains from the ATCC collection include Proteus vulgaris ATCC 49132, Proteus mirabilis ATCC 35659, Klebsiella pneumoniae ATCC 33495, Enterobacter aerogenes ATCC 35029 and Serratia marcescens ATCC 13880. S. aureus NRS100 (COL) is a well characterized methicillian-resistant S. aureus (MRSA) strain. The strains S. aureus VAN1 and S. aureus VAN2, vancomycin-resistant MRSA strains that were isolated in Michigan and Pennsylvania, were the first vancomycin-resistant strains clinically isolated. S. aureus NRS119 and S. aureus NRS120 are linezolid-resistant isolates from the Network on Antimicrobial Resistance in S. aureus (NARSA) collection. E. faecalis 99 and E. faecium 106 are vancomycin-resistant enterococcal strains.

On to `C[C@@H](c1ccccc1)N(CC(N)=O)C(=O)CN(C(=O)CN(CCCCN)C(=O)CN(C(=O)CN(C(=O)CN(CCCCN)C(=O)CN(C(=O)CN(C(=O)CN(CCCCN)C(=O)CN(C(=O)CN(C(=O)CNCCCCN)[C@@H](C)c1ccccc1)[C@@H](C)c1ccccc1)[C@@H](C)c1ccccc1)[C@@H](C)c1ccccc1)[C@@H](C)c1ccccc1)[C@@H](C)c1ccccc1)[C@@H](C)c1ccccc1` [compound 1, H-(NLys-Nspe-Nspe)4-NH2] (H-[Nlys][Nspe][Nspe][Nlys][Nspe][Nspe][Nlys][Nspe][Nspe][Nlys][Nspe][Nspe]-NH2), for which the “ID10 (10% metabolic inhibitory concentration)” value in series [1] was found to be 5.1. Moreover, the “ID50 (50% metabolic inhibitory concentration)” value in series [1] was determined as 1.4. The results for the “B. subtilis MIC” value with B. subtilis BR151 and in the series on B. subtilis were 0.88 µM and 1.6 µM, respectively. The “E. coli MIC” value in the series with E. coli JM109 (Table 1, E. coli JM109) worked out at 3.5 µM; in the series with E. coli, 6.3 µM. Besides, the “C. albicans MIC” value in series [2] is 6.3 µM. For the same compound, the “MIC against both strains of E. faecalis” value in series [3] was in the range of 4 to 8 µg/mL.
In the case of `C[C@@H](c1ccccc1)N(CC(N)=O)C(=O)CN(C(=O)CN(CCCCN)C(=O)CN(C(=O)CN(C(=O)CN(CCCCN)C(=O)[C@@H]1CCCN1C(=O)CN(C(=O)CN(CCCCN)C(=O)CN(C(=O)CN(C(=O)CNCCCCN)[C@@H](C)c1ccccc1)[C@@H](C)c1ccccc1)[C@@H](C)c1ccccc1)[C@@H](C)c1ccccc1)[C@@H](C)c1ccccc1)[C@@H](C)c1ccccc1` [1-Pro6, H-Nlys-Nspe-Nspe-Nlys-Nspe-L-Pro-(Nlys-Nspe-Nspe)2-NH2] (H-[Nlys][Nspe][Nspe][Nlys][Nspe]P[Nlys][Nspe][Nspe][Nlys][Nspe][Nspe]-NH2), the MICs in the series with E. coli JM109 (JM109) was below 7 µM.

(Values after patent US20100036088A1, “Selective poly-N-substituted glycine antibiotics” (priority 2008, published 2010).)
